In patent publication US20240269139A1, “COMPOUNDS FOR TARGETED PROTEIN DEGRADATION OF KINASES” (DANA-FARBER CANCER INSTITUTE, INC., priority 2020, published 2024):
Read-outs that look alike come from different tables or passages of the source.

Experiments:
Type in all cases: cell-based
[1] = target: protein kinases (human kinome) (Homo sapiens, UniProt O00746); conditions: NME4 (O00746); experiment wp084
[2] = target: protein kinases (human kinome) (Homo sapiens, UniProt P19525); conditions: for logFC: EIF2AK2 (P19525)
protein kinases (human kinome) (Homo sapiens, UniProt P19525), sequence (P19525 whole entry): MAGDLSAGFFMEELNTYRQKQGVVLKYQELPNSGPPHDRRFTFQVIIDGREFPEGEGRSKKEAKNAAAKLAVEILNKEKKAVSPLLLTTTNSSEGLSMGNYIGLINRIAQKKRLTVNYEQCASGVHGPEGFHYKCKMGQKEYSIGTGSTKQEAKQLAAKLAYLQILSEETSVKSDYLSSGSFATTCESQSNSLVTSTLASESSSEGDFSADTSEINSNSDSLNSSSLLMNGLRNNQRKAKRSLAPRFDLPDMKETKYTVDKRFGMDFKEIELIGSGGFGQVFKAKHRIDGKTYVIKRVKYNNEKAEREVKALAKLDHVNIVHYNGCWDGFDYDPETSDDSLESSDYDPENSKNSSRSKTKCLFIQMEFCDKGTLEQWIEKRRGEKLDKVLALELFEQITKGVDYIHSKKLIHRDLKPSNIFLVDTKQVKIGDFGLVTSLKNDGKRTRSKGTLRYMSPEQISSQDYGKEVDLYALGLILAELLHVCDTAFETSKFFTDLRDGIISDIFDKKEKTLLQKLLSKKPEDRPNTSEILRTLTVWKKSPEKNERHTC

[3] = target: protein kinases (human kinome) (Homo sapiens, UniProt P07948); conditions: for logFC: LYN (P07948-1)
[4] = target: protein kinases (human kinome) (Homo sapiens, UniProt Q5S007); conditions: for logFC: LRRK2 (Q5S007)
protein kinases (human kinome) (Homo sapiens, UniProt Q5S007), sequence (Q5S007 whole entry): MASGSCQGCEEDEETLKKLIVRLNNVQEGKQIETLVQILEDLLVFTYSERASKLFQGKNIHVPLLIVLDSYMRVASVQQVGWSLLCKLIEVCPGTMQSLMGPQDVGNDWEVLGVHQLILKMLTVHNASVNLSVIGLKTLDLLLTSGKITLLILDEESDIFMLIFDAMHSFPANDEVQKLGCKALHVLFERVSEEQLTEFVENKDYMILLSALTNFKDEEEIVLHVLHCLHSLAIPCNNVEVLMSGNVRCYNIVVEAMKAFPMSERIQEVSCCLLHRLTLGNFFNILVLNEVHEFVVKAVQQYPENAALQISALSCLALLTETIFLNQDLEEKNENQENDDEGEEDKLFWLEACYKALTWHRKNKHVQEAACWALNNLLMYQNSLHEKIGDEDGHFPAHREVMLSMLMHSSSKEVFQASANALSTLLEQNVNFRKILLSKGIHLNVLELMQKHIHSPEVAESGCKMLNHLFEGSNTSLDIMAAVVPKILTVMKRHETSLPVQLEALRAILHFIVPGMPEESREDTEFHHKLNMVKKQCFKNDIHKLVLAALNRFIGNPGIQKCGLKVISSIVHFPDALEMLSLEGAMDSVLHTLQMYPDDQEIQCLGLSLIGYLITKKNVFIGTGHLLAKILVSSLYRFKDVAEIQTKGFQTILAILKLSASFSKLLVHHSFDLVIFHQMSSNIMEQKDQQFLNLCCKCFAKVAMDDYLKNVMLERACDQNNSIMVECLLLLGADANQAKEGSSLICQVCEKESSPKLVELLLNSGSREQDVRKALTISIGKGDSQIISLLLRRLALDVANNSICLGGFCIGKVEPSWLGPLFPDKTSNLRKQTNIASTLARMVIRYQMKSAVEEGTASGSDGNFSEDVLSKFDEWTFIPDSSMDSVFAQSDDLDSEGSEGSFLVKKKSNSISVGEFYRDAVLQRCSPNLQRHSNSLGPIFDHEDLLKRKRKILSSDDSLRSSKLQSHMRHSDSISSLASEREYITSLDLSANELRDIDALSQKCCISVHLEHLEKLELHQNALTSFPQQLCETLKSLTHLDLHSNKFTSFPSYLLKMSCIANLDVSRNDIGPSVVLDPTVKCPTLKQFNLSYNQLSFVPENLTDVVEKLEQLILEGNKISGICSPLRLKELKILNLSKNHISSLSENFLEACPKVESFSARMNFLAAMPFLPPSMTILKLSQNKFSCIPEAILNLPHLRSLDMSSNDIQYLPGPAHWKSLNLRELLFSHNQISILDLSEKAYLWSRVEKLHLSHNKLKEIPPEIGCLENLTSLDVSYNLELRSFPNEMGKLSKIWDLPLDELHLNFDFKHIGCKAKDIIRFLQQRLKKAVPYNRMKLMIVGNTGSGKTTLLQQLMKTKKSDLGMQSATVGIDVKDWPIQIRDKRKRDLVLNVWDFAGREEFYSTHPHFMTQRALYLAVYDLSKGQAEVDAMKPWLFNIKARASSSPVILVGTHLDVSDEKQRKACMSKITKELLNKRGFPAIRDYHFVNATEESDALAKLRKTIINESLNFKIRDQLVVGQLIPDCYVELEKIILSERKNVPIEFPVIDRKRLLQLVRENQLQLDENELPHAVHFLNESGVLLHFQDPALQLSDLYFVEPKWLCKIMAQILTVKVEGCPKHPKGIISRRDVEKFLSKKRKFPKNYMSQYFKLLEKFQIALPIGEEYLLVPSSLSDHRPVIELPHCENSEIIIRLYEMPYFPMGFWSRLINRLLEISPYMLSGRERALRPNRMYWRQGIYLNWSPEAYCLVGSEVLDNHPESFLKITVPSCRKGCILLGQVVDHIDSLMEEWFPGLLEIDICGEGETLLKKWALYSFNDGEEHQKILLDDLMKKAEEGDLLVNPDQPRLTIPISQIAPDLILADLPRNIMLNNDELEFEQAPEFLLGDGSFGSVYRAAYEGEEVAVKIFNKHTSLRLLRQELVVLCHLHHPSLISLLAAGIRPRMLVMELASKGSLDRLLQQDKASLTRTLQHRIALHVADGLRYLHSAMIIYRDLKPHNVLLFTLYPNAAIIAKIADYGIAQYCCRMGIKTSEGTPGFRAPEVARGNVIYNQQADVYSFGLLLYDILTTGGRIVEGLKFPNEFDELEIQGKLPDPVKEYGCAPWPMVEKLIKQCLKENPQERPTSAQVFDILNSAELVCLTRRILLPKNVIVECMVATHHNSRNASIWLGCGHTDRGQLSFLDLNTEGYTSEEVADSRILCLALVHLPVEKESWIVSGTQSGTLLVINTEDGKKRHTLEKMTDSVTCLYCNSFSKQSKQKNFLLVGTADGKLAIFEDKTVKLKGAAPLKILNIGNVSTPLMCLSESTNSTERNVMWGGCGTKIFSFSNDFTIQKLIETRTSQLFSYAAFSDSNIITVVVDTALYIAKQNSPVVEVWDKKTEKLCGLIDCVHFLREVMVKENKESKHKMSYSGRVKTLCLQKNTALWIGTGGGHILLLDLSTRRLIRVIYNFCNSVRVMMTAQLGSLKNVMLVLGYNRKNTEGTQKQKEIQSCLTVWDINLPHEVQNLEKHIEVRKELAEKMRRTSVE

[5] = target: protein kinases (human kinome) (Homo sapiens, UniProt Q9H3S4); conditions: TPK1 (Q9H3S4); experiment wp114
[6] = target: protein kinases (human kinome) (Homo sapiens, UniProt Q8N165); conditions: for logFC of PDIK1L (Q8N165): Experiment wp168; for logFC: PDIK1L (Q8N165), experiment wp168
protein kinases (human kinome) (Homo sapiens, UniProt Q8N165), sequence (Q8N165 whole entry): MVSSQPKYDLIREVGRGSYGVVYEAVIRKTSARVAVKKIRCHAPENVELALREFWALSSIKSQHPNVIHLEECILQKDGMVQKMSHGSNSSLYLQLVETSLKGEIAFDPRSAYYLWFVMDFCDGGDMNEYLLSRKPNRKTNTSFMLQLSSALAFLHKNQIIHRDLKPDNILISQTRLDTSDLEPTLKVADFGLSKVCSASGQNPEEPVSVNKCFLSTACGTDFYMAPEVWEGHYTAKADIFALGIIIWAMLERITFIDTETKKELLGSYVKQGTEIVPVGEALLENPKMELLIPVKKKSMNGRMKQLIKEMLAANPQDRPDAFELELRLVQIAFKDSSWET

[7] = target: protein kinases (human kinome) (Homo sapiens, UniProt O75676); conditions: for logFC: RPS6KA4 (O75676)
[8] = target: T1, protein kinases (human kinome) (Homo sapiens, UniProt Q9NWZ3); conditions: for logFC: IRAK4 (Q9NWZ3-1)
T1 sequence (Q9NWZ3 1-460): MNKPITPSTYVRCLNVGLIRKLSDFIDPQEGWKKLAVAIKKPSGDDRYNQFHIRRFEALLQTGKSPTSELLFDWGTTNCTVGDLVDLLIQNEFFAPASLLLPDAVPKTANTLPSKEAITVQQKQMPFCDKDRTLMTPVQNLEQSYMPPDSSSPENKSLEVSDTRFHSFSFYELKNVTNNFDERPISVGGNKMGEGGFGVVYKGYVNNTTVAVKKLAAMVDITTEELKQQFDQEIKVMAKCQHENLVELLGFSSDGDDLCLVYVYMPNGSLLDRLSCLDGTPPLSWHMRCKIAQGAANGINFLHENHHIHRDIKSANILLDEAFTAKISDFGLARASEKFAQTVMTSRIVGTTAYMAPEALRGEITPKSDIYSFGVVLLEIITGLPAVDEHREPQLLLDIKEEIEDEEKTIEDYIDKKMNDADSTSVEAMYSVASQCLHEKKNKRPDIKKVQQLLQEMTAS

[9] = target: protein kinases (human kinome) (Homo sapiens, UniProt Q9Y243); conditions: AKT3 (Q9Y243-1)
protein kinases (human kinome) (Homo sapiens, UniProt Q9Y243), sequence (Q9Y243 whole entry): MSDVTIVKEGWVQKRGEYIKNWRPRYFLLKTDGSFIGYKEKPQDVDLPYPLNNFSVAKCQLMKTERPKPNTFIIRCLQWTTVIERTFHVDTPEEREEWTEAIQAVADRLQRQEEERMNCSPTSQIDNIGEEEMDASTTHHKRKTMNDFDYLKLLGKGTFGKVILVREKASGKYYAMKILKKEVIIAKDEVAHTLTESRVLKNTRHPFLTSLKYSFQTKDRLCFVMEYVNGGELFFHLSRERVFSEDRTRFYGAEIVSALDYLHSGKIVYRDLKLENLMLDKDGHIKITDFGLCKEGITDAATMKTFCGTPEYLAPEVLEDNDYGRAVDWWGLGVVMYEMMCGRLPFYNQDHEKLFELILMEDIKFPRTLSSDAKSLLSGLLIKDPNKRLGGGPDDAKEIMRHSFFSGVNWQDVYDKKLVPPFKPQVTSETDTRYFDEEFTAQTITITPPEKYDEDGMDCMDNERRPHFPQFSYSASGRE

[10] = target: protein kinases (human kinome) (Homo sapiens, UniProt Q00536)
protein kinases (human kinome) (Homo sapiens, UniProt Q00536), sequence (Q00536 whole entry): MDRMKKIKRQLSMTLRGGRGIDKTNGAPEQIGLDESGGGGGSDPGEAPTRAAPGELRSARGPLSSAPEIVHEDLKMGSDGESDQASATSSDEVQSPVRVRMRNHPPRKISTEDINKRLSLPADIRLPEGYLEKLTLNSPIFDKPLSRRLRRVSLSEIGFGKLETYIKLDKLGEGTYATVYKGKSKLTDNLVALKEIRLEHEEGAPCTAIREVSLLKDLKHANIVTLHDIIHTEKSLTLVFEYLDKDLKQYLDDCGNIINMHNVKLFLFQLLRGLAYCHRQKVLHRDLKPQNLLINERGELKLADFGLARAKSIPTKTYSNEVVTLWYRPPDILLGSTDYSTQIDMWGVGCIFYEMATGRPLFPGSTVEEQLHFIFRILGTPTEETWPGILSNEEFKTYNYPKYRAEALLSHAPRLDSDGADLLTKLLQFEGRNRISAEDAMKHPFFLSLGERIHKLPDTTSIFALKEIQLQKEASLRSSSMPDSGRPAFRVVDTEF

[11] = target: protein kinases (human kinome) (Homo sapiens, UniProt P36894); conditions: for logFC: BMPR1A (P36894)
protein kinases (human kinome) (Homo sapiens, UniProt P36894), sequence (P36894 24-532): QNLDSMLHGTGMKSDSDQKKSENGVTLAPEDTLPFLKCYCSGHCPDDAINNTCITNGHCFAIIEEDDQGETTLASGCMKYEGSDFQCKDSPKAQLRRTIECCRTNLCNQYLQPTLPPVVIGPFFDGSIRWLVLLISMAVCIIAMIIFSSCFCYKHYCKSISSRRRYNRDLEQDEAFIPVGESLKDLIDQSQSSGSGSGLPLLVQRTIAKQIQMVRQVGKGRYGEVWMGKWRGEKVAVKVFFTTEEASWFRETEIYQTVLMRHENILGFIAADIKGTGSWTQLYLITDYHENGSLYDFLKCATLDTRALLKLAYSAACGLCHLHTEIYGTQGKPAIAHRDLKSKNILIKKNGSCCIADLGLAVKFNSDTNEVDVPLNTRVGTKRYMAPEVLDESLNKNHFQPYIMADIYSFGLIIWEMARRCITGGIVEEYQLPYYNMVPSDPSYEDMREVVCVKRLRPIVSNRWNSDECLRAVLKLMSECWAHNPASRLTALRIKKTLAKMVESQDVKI

[12] = target: T2, protein kinases (human kinome) (Homo sapiens, UniProt Q9Y616); conditions: experiment wp146; for logFC: IRAK3 (Q9Y616)
T2 sequence (Q9Y616 1-596): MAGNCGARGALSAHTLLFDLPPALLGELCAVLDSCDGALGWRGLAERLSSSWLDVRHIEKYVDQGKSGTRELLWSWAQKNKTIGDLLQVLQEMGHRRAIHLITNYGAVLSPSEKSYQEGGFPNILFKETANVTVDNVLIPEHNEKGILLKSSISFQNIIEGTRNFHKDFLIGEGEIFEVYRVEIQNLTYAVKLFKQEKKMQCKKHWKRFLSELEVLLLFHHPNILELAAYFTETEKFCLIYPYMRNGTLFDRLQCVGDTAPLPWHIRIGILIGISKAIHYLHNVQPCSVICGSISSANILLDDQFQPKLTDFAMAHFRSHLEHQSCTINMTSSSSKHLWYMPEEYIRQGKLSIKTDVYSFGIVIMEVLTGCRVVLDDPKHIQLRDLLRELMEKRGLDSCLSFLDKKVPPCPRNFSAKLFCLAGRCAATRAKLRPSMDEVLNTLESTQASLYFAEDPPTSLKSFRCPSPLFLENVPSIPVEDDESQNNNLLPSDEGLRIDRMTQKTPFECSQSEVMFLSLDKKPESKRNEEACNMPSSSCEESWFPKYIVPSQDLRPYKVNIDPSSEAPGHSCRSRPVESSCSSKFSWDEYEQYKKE

protein kinases (human kinome) (Homo sapiens, UniProt O00746), sequence (O00746 29-187): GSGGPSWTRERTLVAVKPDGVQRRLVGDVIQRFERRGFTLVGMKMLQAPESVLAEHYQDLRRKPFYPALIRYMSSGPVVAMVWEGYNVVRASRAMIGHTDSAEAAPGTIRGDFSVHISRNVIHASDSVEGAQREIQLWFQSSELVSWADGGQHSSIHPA

SMILES: CC(=O)c1c(C)c2cnc(Nc3ccc(N4CCN(CCOCCOCCOCCNC(=O)COc5cccc6c5C(=O)N(C5CCC(=O)NC5=O)C6=O)CC4)cn3)nc2n(C2CCCC2)c1=O (stereo not drawn) [BSJ.03.123]
- logFC [1]: −0.3681

SMILES: CN(C)C(=O)c1cc2cnc(Nc3ccc(N4CCN(CCCCNC(=O)COc5cccc6c5C(=O)N(C5CCC(=O)NC5=O)C6=O)CC4)cn3)nc2n1C1CCCC1 (stereo not drawn) [BSJ.04.132]
- logFC [1]: −0.4467

SMILES: CS(=O)(=O)Nc1cccc(-c2csc3cnc(Nc4ccc(N5CCN(CCCCCOc6cccc7c6C(=O)N(C6CCC(=O)NC6=O)C7=O)CC5)cc4)nc23)c1 (stereo not drawn) [DB0614, N-(3-(2-((4-(4-(5-((2-(2,6-Dioxopiperidin-3-yl)-1,3-dioxoisoindolin-4-yl)oxy)pentyl)piperazin-1-yl)phenyl)amino)thieno[3,2-d]pyrimidin-7-yl)phenyl)methanesulfonamide]
- logFC ([2]; experiment wp117): −0.3221
- logFC of EIF2AK2 (P19525) ([2]; Experiment wp117): −0.3221

SMILES: Cc1ccc(NC(=O)c2cccc(C(F)(F)F)c2)cc1N1Cc2cnc(Nc3ccc(N4CCN(Cc5cn(CCCCCOc6cccc7c6C(=O)N(C6CCC(=O)NC6=O)C7=O)nn5)CC4)nc3)nc2N(C)C1=O (stereo not drawn) [DB0646, N-(3-(7-((6-(4-((1-(5-((2-(2,6-Dioxopiperidin-3-yl)-1,3-dioxoisoindolin-4-yl)oxy)pentyl)-1H-1,2,3-triazol-4-yl)methyl)piperazin-1-v)pyridin-3-yl)amino)-1-methyl-2-oxo-1,4-dihydropyrimido[4,5-d]pyrimidin-3(2H)-yl)-4-methylphenyl)-3-(trifluoromethyl)benzamide]
- logFC of LYN (P07948-1) ([3]; Experiment wp172): −0.7938
- logFC ([3]; experiment wp172): −0.7938
- logFC of LRRK2 (Q5S007) ([4]; Experiment wp160, 2 hr): −1.181
- logFC ([4]; experiment wp160, 2 hr): −1.181
- logFC ([4]; experiment wp160, 4 hr): −1.307
- logFC ([4]; experiment wp160, 1 hr): −1.165
- logFC ([4]; experiment wp160, 8 hr): −1.747
- logFC of LRRK2 (Q5S007) ([4]; experiment wp160, 1 hr): −1.165
- logFC of LRRK2 (Q5S007) ([4]; experiment wp160, 4 hr): −1.307
- logFC of LRRK2 (Q5S007) ([4]; experiment wp160, 8 hr): −1.747
- logFC [5]: −1.144

SMILES: Cc1ccc(NC(=O)c2cccc(C(F)(F)F)c2)cc1N1Cc2cnc(Nc3ccc(N4CCN(CCCOc5cccc6c5C(=O)N(C5CCC(=O)NC5=O)C6=O)CC4)nc3)nc2N(C)C1=O (stereo not drawn) [DB0662]
- logFC of PDIK1L (Q8N165) [6]: −0.3272
- logFC [6]: −0.3272

SMILES: Cc1ccc(NC(=O)c2cccc(C(F)(F)F)c2)cc1N1Cc2cnc(Nc3ccc(N4CCN(CCCCC(=O)N[C@H](C(=O)N5C[C@H](O)C[C@H]5C(=O)N[C@@H](C)c5ccc(-c6scnc6C)cc5)C(C)(C)C)CC4)nc3)nc2N(C)C1=O [DB1113]
- logFC of PDIK1L (Q8N165) [6]: −0.5334
- logFC [6]: −0.5334

SMILES: CC(C)(C)c1nc(-c2cccc(NS(=O)(=O)c3c(F)cccc3F)c2F)c(-c2ccnc(NCCOCCNC(=O)CCOCCOCCNc3cccc4c3C(=O)N(C3CCC(=O)NC3=O)C4=O)n2)s1 (stereo not drawn) [DD.03.106]
- logFC ([2]; experiment wp147, 2 uM): −0.3545
- logFC ([2]; experiment wp147, 4 uM): −0.4042
- logFC of EIF2AK2 (P19525) ([2]; Experiment wp147, 2 uM): −0.3545
- logFC of EIF2AK2 (P19525) ([2]; Experiment wp147, 4 uM): −0.4042

SMILES: Cc1ncsc1-c1ccc([C@H](C)NC(=O)[C@@H]2C[C@@H](O)CN2C(=O)[C@@H](NC(=O)CCOCCOCCN2CCN(c3ccc(Nc4ncc(Cl)c(Nc5ccccc5S(=O)(=O)C(C)C)n4)cc3)CC2)C(C)(C)C)cc1 [FMF.06.098.1]
- logFC of RPSGKA4 (O75676) ([7]; Experiment wp108): −0.4196
- logFC ([7]; experiment wp108): −0.4196
- logFC ([7]; experiment wp131): −0.5351
- logFC of RPS6KA4 (O75676) ([7]; experiment wp131): −0.5351
- logFC of IRAK4 (Q9NWZ3-1) ([8]; Experiment wp108): −0.6505
- logFC ([8]; experiment wp108): −0.6505
- logFC ([8]; experiment wp131): −0.7086
- logFC of IRAK4 (Q9NWZ3-1) ([8]; experiment wp131): −0.7086
- logFC [5]: −0.8744

SMILES: C[C@@H]1C[C@@H](O)c2ncnc(N3CCN(C(=O)[C@H](CNCCCCCCCCCCc4cccc5c4C(=O)N(C4CCC(=O)NC4=O)C5=O)c4ccc(Cl)cc4)CC3)c21 (stereo partly drawn) [INY.03.041.01]
- logFC ([9]; experiment wp118): −2.769
- logFC ([9]; experiment wp118, direction down): −2.769
- logFC ([9]; experiment wp135, 4 hr): −1.925
- logFC ([9]; experiment wp135, 4 hr, direction down): −1.925

SMILES: Cc1cnc(Nc2ccc(N3CCN(CCCCCCC(=O)N[C@H](C(=O)N4C[C@H](O)C[C@H]4C(=O)N[C@@H](C)c4ccc(-c5scnc5C)cc4)C(C)(C)C)CC3)cc2)nc1Nc1cccc(S(=O)(=O)NC(C)(C)C)c1 [JWG.123]
- logFC CDK16 (Q00536-1) ([10]; Experiment wp195): −0.5026
- logFC of CDK16 (Q00536-1) ([10]; Experiment wp195): −0.5026

SMILES: Cc1ccc(C(=O)Nc2ccc(CN3CCN(CCCOCCOCCOCCNC(=O)COc4cccc5c4C(=O)N(C4CCC(=O)NC4=O)C5=O)CC3)c(C(F)(F)F)c2)cc1C#Cc1cnc2cccnn12 (stereo not drawn) [SB1.G.187]
- logFC ([3]; experiment wp172): −1.23
- logFC LYN (P07948-1) ([3]; experiment wp172, direction of change down): −1.23

SMILES: CC(C)S(=O)(=O)c1ccccc1Nc1nc(Nc2ccc(N3CCN(CCOCCNC(=O)CNc4cccc5c4C(=O)N(C4CCC(=O)NC4=O)C5=O)CC3)cc2)ncc1Cl (stereo not drawn) [SK.3.91]
- logFC ([11]; experiment wp105): −0.4077
- logFC ([11]; experiment wp107): −1.103
- logFC ([11]; experiment wp133, 4 hr): −0.8007
- logFC of BMPR1A (P36894) ([11]; Experiment wp107): −1.103
- logFC of BMPR1A (P36894) ([11]; experiment wp105): −0.4077
- logFC of BMPR1A (P36894) ([11]; experiment wp133, 4 hr): −0.8007
- logFC ([9]; experiment wp105): −0.7783
- logFC ([9]; experiment wp105, direction down): −0.7783
- logFC CDK16 (Q00536-1) ([10]; Experiment wp172): −0.8169
- logFC of CDK16 (Q00536-1) ([10]; Experiment wp172): −0.8169
- logFC ([4]; experiment wp160, 1 hr): −0.8447
- logFC of LRRK2 (Q5S007) ([4]; experiment wp160, 1 hr): −0.8447

SMILES: CC(C)S(=O)(=O)c1ccccc1Nc1nc(Nc2ccc(N3CCN(CCOCCOCCNC(=O)CNc4cccc5c4C(=O)N(C4CCC(=O)NC4=O)C5=O)CC3)cc2)ncc1Cl (stereo not drawn) [TL12.186]
- logFC ([11]; experiment wp131): −0.8334
- logFC ([11]; experiment wp137): −0.6566
- logFC of BMPR1A (P36894) ([11]; experiment wp131): −0.8334
- logFC of BMPR1A (P36894) ([11]; experiment wp137): −0.6566
- logFC ([8]; experiment wp131): −0.4293
- logFC ([8]; experiment wp137): −0.4185
- logFC of IRAK4 (Q9NWZ3-1) ([8]; experiment wp131): −0.4293
- logFC of IRAK4 (Q9NWZ3-1) ([8]; experiment wp137): −0.4185

SMILES: NC(=O)c1c(F)cccc1Nc1nc(Nc2ccc(S(=O)(=O)NCCOCCOCCOCCOCCNc3cccc4c3C(=O)N(C3CCC(=O)NC3=O)C4=O)cc2)ncc1Br (stereo not drawn) [TMX.02.138]
- logFC [12]: −1.544
- logFC of IRAK3 (Q9Y616) [12]: −1.544

SMILES: Cc1cc(Nc2ncc(Br)c(Nc3cccc(F)c3C(N)=O)n2)ccc1S(=O)(=O)NCCOCCOCCOCCOCCNc1cccc2c1C(=O)N(C1CCC(=O)NC1=O)C2=O (stereo not drawn) [TMX.02.174]
- logFC ([7]; experiment wp146): −1.5
- logFC of RPS6KA4 (O75676) ([7]; experiment wp146): −1.5
- logFC [12]: −1.343
- logFC of IRAK3 (Q9Y616) [12]: −1.343
